In patent US12686690B2, “Macrocyclic urea orexin receptor agonists” (Merck Sharp & Dohme LLC, priority 2020, dated 2026):

Target: T1, hOX2R (Homo sapiens, UniProt O43614)
T1 construct: expressed in transfected cells; host or cells: CHO cells (G418 selection)
T1 sequence (O43614 1-444): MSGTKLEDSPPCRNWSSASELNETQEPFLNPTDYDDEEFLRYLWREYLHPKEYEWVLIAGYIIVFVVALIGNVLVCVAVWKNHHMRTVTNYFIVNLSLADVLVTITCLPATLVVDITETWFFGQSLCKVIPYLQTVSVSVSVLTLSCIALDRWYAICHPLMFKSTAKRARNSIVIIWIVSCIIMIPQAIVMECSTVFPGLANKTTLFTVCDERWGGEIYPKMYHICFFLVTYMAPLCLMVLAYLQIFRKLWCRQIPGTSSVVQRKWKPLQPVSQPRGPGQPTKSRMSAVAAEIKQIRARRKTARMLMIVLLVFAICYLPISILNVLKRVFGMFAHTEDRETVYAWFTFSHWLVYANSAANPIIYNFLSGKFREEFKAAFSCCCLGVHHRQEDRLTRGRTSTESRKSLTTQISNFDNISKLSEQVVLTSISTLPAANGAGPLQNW
Assay: hOX2R IPone assay (orexin receptor agonism)
Type: cell-based
Conditions: IPone readout; for hOX2R_Ipone max %act: maximal activation; for EC50: orexin receptor agonist, read-out: hOX2R_IPone EC50

Molecule CCN1C(=O)NC(CCC(F)F)CCCCCOc2cc(nn3ccnc23)-c2cc(ncc2F)[C@H]1C (stereo partly drawn) [Example 204, (3R,E)-7-(3,3-difluoropropyl)-4-ethyl-25-fluoro-3-methyl-13-oxa-4,6-diaza-1(6,8)-imidazo[1,2-b]pyridazina-2(4,2)-pyridina-cyclotridecaphan-5-one] has a hOX2R_Ipone max %act of 100.5% and an EC50 of 2.11 nM.

With C[C@@H]1c2cc(c(F)cn2)-c2nc(c3nccn3n2)OCCCCCC(CCC(F)F)NC(=O)N1C1CC1 (stereo partly drawn) [Example 205, (3R,E)-4-cyclopropyl-7-(3,3-difluoropropyl)-25-fluoro-3-methyl-13-oxa-4,6-diaza-1(2,4)-imidazo[2,1-f] [1,2,4] triazina-2(4,2)-pyridinacyclo-tridecaphan-5-one] the hOX2R_Ipone max %act was 104.8% and the EC50 was 2.39 nM.

Work on CCN1C(=O)NC(CC2(C)CC2)CCCCCOc2nc(nn3ccnc23)-c2cc(ncc2OC)[C@H]1C (stereo partly drawn) [Example 206, (3R,E)-4-ethyl-25-methoxy-3-methyl-7-((1-methylcyclo-propyl)methyl)-13-oxa-4,6-diaza-1(2,4)-imidazo[2,1-f] [1,2,4]triazina-2(4,2)-pyridina-cyclotridecaphan-5-one] yielded a hOX2R_Ipone max %act of 107.8% and an EC50 of 2.07 nM.

Molecule CCN1C(=O)NC(CC(C)(F)F)CCCCCOc2nc(nn3ccnc23)-c2cc(ncc2OC)[C@H]1C (stereo partly drawn) [Example 207, (3R,E)-7-(2,2-difluoropropyl)-4-ethyl-25-methoxy-3-methyl-13-oxa-4,6-diaza-1(2,4)-imidazo[2,1-f][1,2,4]triazina-2(4,2)-pyridinacyclo-tridecaphan-5-one] has a hOX2R_Ipone max %act of 104.7% and an EC50 of 4.29 nM.

For CCN1C(=O)NC(CCC(F)F)CCCCCOc2nc(cn3ccnc23)-c2cc(ncc2OC)[C@H]1C(F)(F)F (stereo partly drawn) [Example 208, (3S,E)-7-(3,3-difluoropropyl)-4-ethyl-25-methoxy-3-(trifluoromethyl)-13-oxa-4,6-diaza-1(6,8)-imidazo[1,2-a]pyrazina-2(4,2)-pyridinacyclotridecaphan-5-one], the hOX2R_Ipone max %act was 101.8% and the EC50 was 0.29 nM.

CCN1C(=O)N[C@@H](CCC(F)(F)F)CCCCCOc2nc(cn3ccnc23)C2=C(C3CC3)N=C(O2)[C@H]1C [Example 211, (9R,13R,E)-14-Cyclopropyl-12-ethyl-13-methyl-9-(3,3,3-trifluoropropyl)-3-oxa-10,12-diaza-1(5,2)-oxazola-2(6,8)-imidazo[1,2-a]pyrazinacyclotridecaphan-11-one] was tested, and the hOX2R_Ipone max %act was 99.83% and the EC50 was 1.13 nM.

Molecule CCN1C(=O)NC(c2csc(C)n2)CCCCCOc2nc(cn3ccnc23)-c2cc(cnc2OC)C1C [Example 215, (3R,E)-4-ethyl-22-methoxy-3-methyl-7-(2-methylthiazol-4-yl)-13-oxa-4,6-diaza-1(6,8)-imidazo[1,2-a]pyrazina-2(3,5)-pyridinacyclotridecaphan-5-one] has a hOX2R_Ipone max %act of 104.9% and an EC50 of 3.56 nM.

For CCN1C(=O)NC(c2nnnn2C)CCCCCOc2nc(cn3ccnc23)-c2cc(ncc2OC)[C@H]1C (stereo partly drawn) [Example 217, (3R,E)-4-ethyl-2^5-methoxy-3-methyl-7-(1-methyl-1H-tetrazol-5-yl)-13-oxa-4,6-diaza-1(6,8)-imidazo[1,2-a]pyrazina-2(4,2)-pyridinacyclotridecaphan-5-one], the hOX2R_Ipone max %act was 100.1% and the EC50 was 0.98 nM.

For CCN1C(=O)NC(c2nc(C)cs2)CCCCCOc2nc(cn3ccnc23)-c2cc(ncc2OC)[C@H]1C (stereo partly drawn) [Example 218, (3R,E)-4-ethyl-2^5-methoxy-3-methyl-7-(4-methylthiazol-2-yl)-13-oxa-4,6-diaza-1(6,8)-imidazo[1,2-a]pyrazina-2(4,2)-pyridinacyclotridecaphan-5-one], the hOX2R_Ipone max %act was 102.4% and the EC50 was 0.9 nM.

Molecule CCN1C(=O)NC(c2ncnn2C)CCCCCOc2nc(cn3ccnc23)-c2cc(ncc2OC)[C@H]1C (stereo partly drawn) [Example 219, (3R,E)-4-ethyl-2^5-methoxy-3-methyl-7-(1-methyl-1H-1,2,4-triazol-5-yl)-13-oxa-4,6-diaza-1(6,8)-imidazo[1,2-a]pyrazina-2(4,2)-pyridinacyclotridecaphan-5-one] has a hOX2R_Ipone max %act of 102.6% and an EC50 of 37.5 nM.

Molecule CCN1C(=O)NC(C)/C=C/CC(F)(F)COc2cn3ccnc3c(n2)-c2cc(ncc2OC)[C@H]1C (stereo partly drawn) [Example 220, (1^7E,3R,8E)-4-ethyl-11,11-difluoro-25-methoxy-3,7-dimethyl-13-oxa-4,6-diaza-1(6,8)-imidazo[1,2-a]pyrazina-2(4,2)-pyridinacyclotridecaphan-8-en-5-one] has a hOX2R_Ipone max %act of 108.5% and an EC50 of 12.1 nM.

CCN1C(=O)N[C@@H](C)CCCC(F)(F)COc2nc(cn3ccnc23)-c2cc(ncc2OC)[C@H]1C [Example 221, (3R,7S,E)-4-ethyl-11,11-difluoro-25-methoxy-3,7-dimethyl-13-oxa-4,6-diaza-1(6,8)-imidazo[1,2-a]pyrazina-2(4,2)-pyridinacyclotridecaphan-5-one] gave a hOX2R_Ipone max %act of 90.75% and an EC50 of 408 nM.

CCN1C(=O)N[C@@H](C)/C=C/CC2(CCOCC2)COc2nc(cn3ccnc23)-c2cc(ncc2OC)[C@H]1C [Example 222, (3′R,7'S,7′E,8′E)-4′-ethyl-5′-methoxy-3′,7′-dimethyl-2,3,5,6-tetrahydrospiro[pyran-4,11′-13-oxa-4,6-diaza-1(6,8)-imidazo[1,2-a]pyrazina-2(4,2)-pyridinacyclotridecaphanen]-8′-en-5′-one] gave a hOX2R_Ipone max %act of 61.55% and an EC50 of 760 nM.

With CCN1C(=O)NC(C(N)=O)CCCCCOc2nc(cn3ccnc23)-c2cc(ncc2F)[C@H]1C (stereo partly drawn) [Example 225, (3R,E)-4-ethyl-25-fluoro-3-methyl-5-oxo-13-oxa-4,6-diaza-1(6,8)-imidazo[1,2-a]pyrazina-2(4,2)-pyridinacyclotridecaphane-7-carboxamide] the hOX2R_Ipone max %act was 78.64% and the EC50 was 286 nM.

With “(3R,7S,E)-4-ethyl-25-methoxy-3-methyl-7-(3,3,3-trifluoropropyl)-13-oxa-10-thia-4,6-diaza-1(6,8)-[1,2,4]triazolo[1,5-a]pyrazina-2(4,2)-pyridinacyclotridecaphan-5-one [Example 134]” the hOX2R_Ipone max %act was 100.6% and the EC50 was 6.4 nM.

For “(3R,E)-4-ethyl-25-methoxy-3- methyl-7-(2,2,3,3- tetrafluoropropyl)-13-oxa-4,6- diaza-1(6,8)-imidazo[1,2-a] pyrazina-2(4,2)-pyridina- cyclotridecaphan-5-one [Example 187]”, the hOX2R_Ipone max %act was 104.1% and the EC50 was 0.62 nM.

“(9R,13R,E)-14-Cyclopropyl-12-ethyl-13-methyl-9-(3,3,3-trifluoropropyl)-3-oxa-10,12-diaza-1(5,2)-thiazola-2(6,8)-imidazo[1,2-a]pyrazinacyclotridecaphan-11-one [Example 209]” showed a hOX2R_Ipone max %act of 99.62% and an EC50 of 1.1 nM.
